Legend:
Type in all cases: in vitro ADME
[1] = Metabolism of [14C]-ataluren in pooled human liver microsomes with cofactors
Description: [^14C]‐Ataluren at 1, 10, and 100 μmol/L was incubated (n = 3) with pooled HLM (1 mg protein/mL) at 37 ± 1°C in 0.2 mL incubation mixtures (final volume) containing potassium phosphate buffer (50 mmol/L, pH 7.4), MgCl2 (3 mmol/L), and EDTA (1 mmol/L) with and without cofactors, NADPH‐generating system (1 mmol/L NADP, 5 mmol/L glucose‐6‐phosphate, and 1 unit/mL glucose‐6‐phosphate dehydrogenase), and uridine diphosphate glucuronic acid (UDPGA, 8 mmol/L). [^14C]‐Ataluren was added in DMSO (final percent of 0.1% v/v). Reactions were started by the addition of the cofactors and terminated by the addition of stop reagent (0.2 mL of 2% v/v formic acid/acetonitrile) at 0, 60, and 120 minutes. Precipitated protein was removed by centrifugation (920 g for 10 minutes at 10°C). The supernatant fractions were analyzed by LC/RAM/MS to determine percent loss of substrate in incubations. Detailed LC/MS conditions are summarized in LC‐MS/MS Analysis section. After chromatographic separation, the detected radioactive peaks were integrated, and their identity was confirmed using mass spectrometry analysis. [^14C]‐ataluren remaining at specific timepoint after incubation was compared with the amount of [^14C]‐ataluren at 0 minutes incubation sample in the same matrix (eg, with or without cofactors etc) to calculate the percentage of ataluren remaining. The percentage of [^14C]‐ataluren acyl glucuronide formation at specific timepoint after incubation was calculated using the amount of metabolite formed over the total radioactivity in each sample.
[^14C]‐Ataluren and metabolites were monitored by LC/RAM/MS system, which consisted of two Shimadzu LC‐10ATvp pumps (Shimadzu Scientific Instruments, Columbia, MD, USA), a Shimadzu SIL‐5000 autosampler, an IN/US Systems β‐RAM radiometric detector (LabLogic), and a Sciex API 4000 QTRAP triple quadrupole mass spectrometer (Sciex) equipped with a Turbo Ionspray ionization source operated in negative ionization mode. The Ionspray voltage was set at 4.5 kV with the source temperature at 450 °C. MS/MS was carried out with nitrogen as the collision gas. The column used was a Phenomenex Luna C8, 3 μm, 150 × 3.0 mm column (Phenomenex, Torrance, CA, USA). Mobile phase A consisted of 0.2% formic acid in water and mobile phase B consisted of 0.2% formic acid in acetonitrile. The flow rate was 0.50 mL/min with gradient program as follows: hold isocratic at 5% B for 2 minutes; linear gradient from 5% B to 60% B in 20 minutes; linear gradient from 60% B to 95% B in 5 minutes and hold isocratic at 95% B for 2 minutes; linear gradient from 95% B to 5% B in 0.5 minutes and hold isocratic at […] for 3.5 minutes.

CYP2A6 = assay: CYP induction in primary human hepatocytes: CYP2A6; settings: Coumarin 7-hydroxylase, 48 hours, n=3
Description: (§1) Human hepatocytes isolated from three Caucasian males were transferred to 48‐well collagen‐coated plates at 0.14 × 10^6 cells/well in planting media for attachment. After attachment, planting media was replaced with sandwich media and the cells were incubated until clusters were established. […] The incubation solutions were aspirated and replaced with freshly prepared incubation solutions containing ataluren for an additional 24 hours. […] The incubation solutions were then aspirated and 150 µL of K‐H buffer containing CYP substrates were added. The hepatocytes were incubated for 30 minutes for CYP2C8 (10 µmol/L amodiaquine), 1 hour for CYP3A4 (125 µmol/L testosterone), and 4 hours for CYPs 1A2 (100 µmol/L phenacetin), 2A6 (100 µmol/L coumarin), 2B6 (150 µmol/L bupropion), 2C9 (50 µmol/L tolbutamide), 2C19 (100 µmol/L S‐mephenytoin), and 2E1 (300 µmol/L chlorzoxazone) activity assays. The reactions were stopped by the addition of 0.15 mL of ice‐cold methanol except that coumarin‐treated cells were incubated with β‐glucuronidase and aryl sulfatase for additional 1 hour to free 7‐hydroxycoumarin before the addition of 0.2 mL of ice‐cold methanol. Metabolite formation in incubations with test compounds and control inhibitors was assessed with validated LC‐MS/MS methods for each of the reaction products as described in Table S2. Enzymatic activity for each CYP was calculated using the absolute amount of metabolite formed (pmol) divided by hepatocytes in the incubation (million cells) and the incubation time (minute). The relative fold induction in enzymatic activity was calculated by comparing the rate of metabolite formation for treatment groups to that of the solvent control group (reported as vehicle control%) or positive control group (reported as positive control%).

CYP2C9 = assay: CYP induction in primary human hepatocytes: CYP2C9; settings: male, 48 h
Description: as §1

O=C(O)c1cccc(-c2noc(-c3ccccc3F)n2)c1 [ataluren, Ataluren]
ataluren loss ([1]; NADPH fortified HLM, 1, 10 and 100 µmol/L, up to 120 minutes): no ataluren loss was observed | ataluren loss ([1]; UDPGA fortified HLM, 1 µmol/L, 120 minutes, n = 3): 32% | ataluren loss ([1]; UDPGA fortified HLM, 10 µmol/L, 120 minutes, n = 3): 31% | ataluren loss ([1]; UDPGA fortified HLM, 100 µmol/L, 120 minutes, n = 3): 18% | Vehicle control %, Mean (CYP2A6; ataluren 4 µM): 100% | Vehicle control %, Mean (CYP2A6; ataluren 40 µM): 111% | Vehicle control %, Mean (CYP2A6; ataluren 400 µM): 118% | Vehicle control %, Mean (CYP2C9; 4 µM): 100% | Vehicle control %, Mean (CYP2C9; 400 µM): 146% | induction over vehicle control, CYP2C9 activity (CYP2C9; hepatocytes, 400 µmol/L): ~1.5 fold

— PMC7083565, “In vitro metabolism, reaction phenotyping, enzyme kinetics, CYP inhibition and induction potential of ataluren” (Pharmacology Research & Perspectives, 2020)
